In PubChem BioAssay (NCI):
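All cell lines were grown in 96-well plates and treated with compound for 48 hours. TGI: concentration producing complete growth inhibition.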

How the values were obtained:
Experiment in all cases: NCI tumour cell line growth inhibition, 48 h
NCI-H460 lung = system: NCI-H460 lung
UACC-257 melanoma = system: UACC-257 melanoma
OVCAR-5 ovarian = system: OVCAR-5 ovarian
SNB-75 CNS = system: SNB-75 CNS
OVCAR-8 ovarian = system: OVCAR-8 ovarian
NCI-H522 lung = system: NCI-H522 lung
HCT-116 colon = system: HCT-116 colon
SN12C renal = system: SN12C renal
UACC-62 melanoma = system: UACC-62 melanoma
SNB-78 CNS = system: SNB-78 CNS
LXFL 529 NSCLC = system: LXFL 529 NSCLC
A549 NSCLC = system: A549 NSCLC
KM20L2 colon = system: KM20L2 colon
CAKI-1 renal = system: CAKI-1 renal
OVCAR-4 ovarian = system: OVCAR-4 ovarian
HOP-18 NSCLC = system: HOP-18 NSCLC
TK-10 renal = system: TK-10 renal
SR leukemia = system: SR leukemia
OVCAR-3 ovarian = system: OVCAR-3 ovarian
SF-268 CNS = system: SF-268 CNS
SNB-19 CNS = system: SNB-19 CNS
HL-60(TB) leukemia = system: HL-60(TB) leukemia
SW-620 colon = system: SW-620 colon
XF 498 CNS = system: XF 498 CNS
K-562 leukemia = system: K-562 leukemia
NCI-H23 lung = system: NCI-H23 lung
HCT-15 colon = system: HCT-15 colon
A498 renal = system: A498 renal
COLO 205 colon = system: COLO 205 colon
HOP-62 NSCLC = system: HOP-62 NSCLC
DMS 273 small cell lung = system: DMS 273 small cell lung
RPMI-8226 leukemia = system: RPMI-8226 leukemia
HCC-2998 colon = system: HCC-2998 colon
RXF-631 renal = system: RXF-631 renal
SF-295 CNS = system: SF-295 CNS
IGROV1 ovarian = system: IGROV1 ovarian
DLD-1 colon = system: DLD-1 colon
786-0 renal = system: 786-0 renal
EKVX NSCLC = system: EKVX NSCLC
MOLT-4 leukemia = system: MOLT-4 leukemia
ACHN renal = system: ACHN renal
MALME-3M melanoma = system: MALME-3M melanoma
HOP-92 NSCLC = system: HOP-92 NSCLC
SK-OV-3 ovarian = system: SK-OV-3 ovarian
RXF 393 renal = system: RXF 393 renal
SK-MEL-5 melanoma = system: SK-MEL-5 melanoma
UO-31 renal = system: UO-31 renal
SK-MEL-2 melanoma = system: SK-MEL-2 melanoma
KM12 colon = system: KM12 colon
NCI-H226 lung = system: NCI-H226 lung
HT29 colon = system: HT29 colon
M14 melanoma = system: M14 melanoma
M19-MEL melanoma = system: M19-MEL melanoma
SF-539 CNS = system: SF-539 CNS
DMS 114 small cell lung = system: DMS 114 small cell lung
U251 CNS = system: U251 CNS
LOX IMVI melanoma = system: LOX IMVI melanoma
CCRF-CEM leukemia = system: CCRF-CEM leukemia
SK-MEL-28 melanoma = system: SK-MEL-28 melanoma

Structure (SMILES): COC1CCC2C(=O)CCCC2O1 (stereo unspecified)
- TGI (NCI-H460 lung): > 100 µM
- TGI (UACC-257 melanoma): > 100 µM
- TGI (OVCAR-5 ovarian): > 100 µM
- TGI (SNB-75 CNS): > 100 µM
- TGI (OVCAR-8 ovarian): > 100 µM
- TGI (NCI-H522 lung): > 100 µM
- TGI (HCT-116 colon): > 100 µM
- TGI (SN12C renal): > 100 µM
- TGI (UACC-62 melanoma): > 100 µM
- TGI (SNB-78 CNS): > 100 µM
- TGI (LXFL 529 NSCLC): > 100 µM
- TGI (A549 NSCLC): > 100 µM
- TGI (KM20L2 colon): > 100 µM
- TGI (CAKI-1 renal): > 100 µM
- TGI (OVCAR-4 ovarian): > 100 µM
- TGI (HOP-18 NSCLC): > 100 µM
- TGI (TK-10 renal): > 100 µM
- TGI (SR leukemia): > 100 µM
- TGI (OVCAR-3 ovarian): > 100 µM
- TGI (SF-268 CNS): > 100 µM
- TGI (SNB-19 CNS): > 100 µM
- TGI (HL-60(TB) leukemia): > 100 µM
- TGI (SW-620 colon): > 100 µM
- TGI (XF 498 CNS): > 100 µM
- TGI (K-562 leukemia): > 100 µM
- TGI (NCI-H23 lung): > 100 µM
- TGI (HCT-15 colon): > 100 µM
- TGI (A498 renal): > 100 µM
- TGI (COLO 205 colon): > 100 µM
- TGI (HOP-62 NSCLC): > 100 µM
- TGI (DMS 273 small cell lung): > 100 µM
- TGI (RPMI-8226 leukemia): > 100 µM
- TGI (HCC-2998 colon): > 100 µM
- TGI (RXF-631 renal): > 100 µM
- TGI (SF-295 CNS): > 100 µM
- TGI (IGROV1 ovarian): > 100 µM
- TGI (DLD-1 colon): > 100 µM
- TGI (786-0 renal): > 100 µM
- TGI (EKVX NSCLC): > 100 µM
- TGI (MOLT-4 leukemia): > 100 µM
- TGI (ACHN renal): > 100 µM
- TGI (MALME-3M melanoma): > 100 µM
- TGI (HOP-92 NSCLC): > 100 µM
- TGI (SK-OV-3 ovarian): > 100 µM
- TGI (RXF 393 renal): > 100 µM
- TGI (SK-MEL-5 melanoma): > 100 µM
- TGI (UO-31 renal): > 100 µM
- TGI (SK-MEL-2 melanoma): > 100 µM
- TGI (KM12 colon): > 100 µM
- TGI (NCI-H226 lung): > 100 µM
- TGI (HT29 colon): > 100 µM
- TGI (M14 melanoma): > 100 µM
- TGI (M19-MEL melanoma): > 100 µM
- TGI (SF-539 CNS): > 100 µM
- TGI (DMS 114 small cell lung): > 100 µM
- TGI (U251 CNS): > 100 µM

Structure (SMILES): CCCOP1(=O)C=C(C)C(Cl)=C(C)C1 (stereo unspecified)
- TGI (NCI-H460 lung): > 100 µM
- TGI (UACC-257 melanoma): 45.7 µM
- TGI (OVCAR-5 ovarian): 77.4 µM
- TGI (SNB-75 CNS): 92.6 µM
- TGI (OVCAR-8 ovarian): > 100 µM
- TGI (NCI-H522 lung): 28.5 µM
- TGI (HCT-116 colon): 47.5 µM
- TGI (LOX IMVI melanoma): 36.1 µM
- TGI (SN12C renal): 58.6 µM
- TGI (UACC-62 melanoma): 32.4 µM
- TGI (LXFL 529 NSCLC): 42.9 µM
- TGI (A549 NSCLC): 61.3 µM
- TGI (KM20L2 colon): 88.8 µM
- TGI (OVCAR-4 ovarian): 86.7 µM
- TGI (HOP-18 NSCLC): > 100 µM
- TGI (TK-10 renal): 63.9 µM
- TGI (SR leukemia): 61.8 µM
- TGI (CCRF-CEM leukemia): 59.3 µM
- TGI (OVCAR-3 ovarian): 70.3 µM
- TGI (SF-268 CNS): 45.2 µM
- TGI (SNB-19 CNS): > 100 µM
- TGI (HL-60(TB) leukemia): 81.6 µM
- TGI (SW-620 colon): 35.5 µM
- TGI (XF 498 CNS): 31.4 µM
- TGI (K-562 leukemia): > 100 µM
- TGI (NCI-H23 lung): 37 µM
- TGI (HCT-15 colon): 58.4 µM
- TGI (COLO 205 colon): 24.4 µM
- TGI (HOP-62 NSCLC): > 100 µM
- TGI (DMS 273 small cell lung): 36.7 µM
- TGI (RPMI-8226 leukemia): 35.5 µM
- TGI (HCC-2998 colon): > 100 µM
- TGI (RXF-631 renal): > 100 µM
- TGI (SF-295 CNS): > 100 µM
- TGI (IGROV1 ovarian): > 100 µM
- TGI (DLD-1 colon): 96.3 µM
- TGI (786-0 renal): 36.7 µM
- TGI (EKVX NSCLC): > 100 µM
- TGI (MOLT-4 leukemia): 64.9 µM
- TGI (ACHN renal): 52.5 µM
- TGI (HOP-92 NSCLC): 48.6 µM
- TGI (SK-OV-3 ovarian): > 100 µM
- TGI (RXF 393 renal): 57 µM
- TGI (SK-MEL-28 melanoma): 43.5 µM
- TGI (SK-MEL-5 melanoma): 55.3 µM
- TGI (UO-31 renal): > 100 µM
- TGI (SK-MEL-2 melanoma): 32.2 µM
- TGI (KM12 colon): 43 µM
- TGI (NCI-H226 lung): 52.2 µM
- TGI (HT29 colon): 49.3 µM
- TGI (M14 melanoma): 32.5 µM
- TGI (M19-MEL melanoma): 52.7 µM
- TGI (SF-539 CNS): 63.8 µM
- TGI (DMS 114 small cell lung): 46.3 µM
- TGI (U251 CNS): 59.3 µM
